{
  "source": "patent US8013144B2",
  "about": "“hnRNP K expression-inhibiting compound and siRNA sequence thereof” (Chang Gung University, priority 2009, dated 2011)",
  "tested_on": "NPC-TW02 and NPC-TW02/TP",
  "test": "cytotoxicity assay with 5′-DFUR, apoptosis assay (annexin V)",
  "type": "cell-based",
  "conditions": "TP over-expression, 72 hours",
  "description": "Refer to FIG. 1A and FIG. 1B. A cell line of nasopharyngeal cancer NPC-TW02/TP is established to stably express exogenous TP. First, the TP-expression carrier pcDNA3.1-PT is transfected to the cell line. Next, the cell line is screened and then cultivated in a culture solution having 500 μg/ml G418. Next is performed a cytotoxicity assay, wherein NPC-TW02 and NPC-TW02/TP are respectively processed with 5′-DFUR (a product of Sigma-Aldrich, St. Louis, Mo., USA). Next, the cell lines are further cultivated for 72 hours. Next, the cell membranes are everted to expose phosphatidylserine. Then, phosphatidylserine is analyzed with the Vybrant® Apoptosis Assay Kit #2 (a product of Invitrogen).\nFirstly, 2×10^5 cells are taken out and washed with PBS. Next, a buffer solution (10 mM HEPES, 140 mM NaCl, 2.5 mM CaCl2, pH 7.4) is used to adjust the solution to have a cell concentration of 2×10^6/mL. Next, 5 μl Alexa Fluor® 488 annexin V is added into […], and then the cell suspension reacts at an ambient temperature for 15 minutes. Next, the cell specimens (10000 events) are analyzed with a flow cytometer (a product of Becton Dickinson), as shown in FIG. 3. […] Then, phosphatidylserine is analyzed with the Vybrant® Apoptosis Assay Kit #2 (a product of Invitrogen).",
  "data": [
    {"smiles": "C[C@H]1O[C@@H](n2cc(F)c(=O)[nH]c2=O)[C@H](O)[C@@H]1O", "note": "[5′-DFUR, 5-fluoro-5′-deoxyuridine]", "values": [
      {"measurement": "sensitivity of nasopharyngeal cancer cells to 5′-DFUR (apoptosis)", "result": "more sensitive"}
    ]}
  ]
}
